Columns and labels:
VEEV (TC-83) = assay: microbe, parasite or virus in culture; assay type: cell-based; conditions: Venezuelan equine encephalitis virus, U-87 MG, 18 h, read-out: VEEV EC50
RSV-A [1] = assay: RSV-A cytopathic effect (CPE) reduction assay in HEp-2 cells, MTS read-out; assay type: cell-based, human respiratory syncytial virus, RSV-A strain Long
in vitro [2] = conditions: human
in vitro [3] = conditions: human; remark: listed apart in the source
AAK1 = AAK1 (Homo sapiens, UniProt Q2M2I8); assay: LanthaScreen Eu Kinase Binding Assay for AAK1
RSV-A [4] = assay: Anti-RSV-A activity in A549 cells, viral RNA in supernatant by RT-qPCR; assay type: cell-based, RSV-A strain Long; conditions: human respiratory syncytial virus, A549, 120 h, read-out: RSV-A EC50 (A549, viral RNA levels)
in vitro [5] = conditions: African green monkey
SARS-CoV-2 = assay: microbe, parasite or virus in culture; assay type: cell-based, SARS-CoV-2 BetaCov/Belgium/GHB-03021/2020; conditions: Severe acute respiratory syndrome coronavirus 2, 96 h, read-out: SARS-CoV-2 EC50
[6] = human respiratory syncytial virus, HEp-2, 96 h; read-out: RSV-A EC50
[7] = HEp-2 cells, inhibition of virus-induced cytopathogenicity by 50%, MOI 0.01, 4 days; read-out: RSV-A EC50

Chain of AAK1 (Q2M2I8 whole entry): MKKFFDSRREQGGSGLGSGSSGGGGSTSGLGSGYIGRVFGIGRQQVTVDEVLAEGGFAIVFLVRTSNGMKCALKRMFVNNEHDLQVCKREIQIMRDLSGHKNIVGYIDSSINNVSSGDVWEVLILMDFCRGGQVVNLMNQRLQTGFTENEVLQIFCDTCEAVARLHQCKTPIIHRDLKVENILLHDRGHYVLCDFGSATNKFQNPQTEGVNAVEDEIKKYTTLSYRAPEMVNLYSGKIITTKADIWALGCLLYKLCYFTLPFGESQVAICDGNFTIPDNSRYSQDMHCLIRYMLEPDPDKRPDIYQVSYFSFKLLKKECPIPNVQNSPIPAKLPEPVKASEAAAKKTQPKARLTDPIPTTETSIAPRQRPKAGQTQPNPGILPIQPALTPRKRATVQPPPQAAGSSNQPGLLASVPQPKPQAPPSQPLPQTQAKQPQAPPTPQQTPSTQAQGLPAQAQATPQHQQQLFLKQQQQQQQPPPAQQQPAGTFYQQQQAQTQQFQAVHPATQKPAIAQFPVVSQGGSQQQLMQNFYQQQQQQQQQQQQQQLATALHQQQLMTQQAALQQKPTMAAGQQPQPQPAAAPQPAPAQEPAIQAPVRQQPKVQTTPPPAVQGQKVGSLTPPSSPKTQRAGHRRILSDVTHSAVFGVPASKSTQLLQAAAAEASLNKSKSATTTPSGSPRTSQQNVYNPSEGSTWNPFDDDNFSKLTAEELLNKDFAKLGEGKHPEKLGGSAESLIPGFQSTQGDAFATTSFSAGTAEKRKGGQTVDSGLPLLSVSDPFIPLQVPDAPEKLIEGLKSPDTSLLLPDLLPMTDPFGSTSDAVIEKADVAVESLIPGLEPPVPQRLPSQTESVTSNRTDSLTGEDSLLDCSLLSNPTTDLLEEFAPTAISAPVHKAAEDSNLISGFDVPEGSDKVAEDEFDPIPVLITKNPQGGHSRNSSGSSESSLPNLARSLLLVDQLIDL

| Compound | EC50 (VEEV (TC-83)) [µM] | EC50 (RSV-A [1]; [6]) [µM] | CC50 at 4 days (in vitro [2]) [µM] | CC50 (in vitro [3]) [µM] | further results |
| --- | --- | --- | --- | --- | --- |
| COc1ccc(-c2cnc3[nH]cc(C#Cc4cccnc4)c3c2)cc1 [Compound 4a, 5-(4-Methoxyphenyl)-3-(pyridin-3-ylethynyl)-1H-pyrrolo[2,3-b]pyridine] | 6.81 ± 1.87 | 0.048 ± 0.037 | 0.24 ± 0.23 | > 10 | – |
| COc1cccc(-c2cnc3[nH]cc(C#Cc4cccnc4)c3c2)c1 [Compound 4b] | > 10 | 0.67 ± 0.43 | 6 ± 5.66 | > 10 | – |
| COc1ccccc1-c1cnc2[nH]cc(C#Cc3cccnc3)c2c1 [Compound 4c] | 5.34 ± 1.87 | 0.69 ± 0.32 | 6 ± 5.66 | > 10 | – |
| COc1cc(OC)cc(-c2cnc3[nH]cc(C#Cc4cccnc4)c3c2)c1 [Compound 4d] | > 10 | – | > 50 | > 10 | AAK1 affinity (in words) (AAK1): low nanomolar AAK1 affinity; IC50 (AAK1): 0.0062 µM; selectivity index (SI) (RSV-A [1]; CC50 HEp-2 / EC50 RSV-A): 90; EC50 (RSV-A [1]; human respiratory syncytial virus, HEp-2, 96 h, read-out: RSV-A EC50): 0.55 ± 0.41 µM; EC50 (RSV-A [4]): 0.05 µM |
| COc1cc(-c2cnc3[nH]cc(C#Cc4cccnc4)c3c2)cc(OC)c1OC [Compound 4e] | 1.5 ± 0.17 | 0.71 ± 0.55 | 1.2 ± 1.13 | > 10 | – |
| COCCOc1ccc(-c2cnc3[nH]cc(C#Cc4cccnc4)c3c2)cc1 [Compound 4f] | > 10 | 30 ± 28.3 | > 50 | > 10 | anti-RSV activity (in words) (RSV-A [1]; HEp-2 cells): completely devoid of anti-RSV activity |
| COc1cc(-c2cnc3[nH]cc(C#Cc4cccnc4)c3c2)ccn1 [Compound 4g] | > 10 | 2.71 ± 1.01 | > 50 | > 10 | – |
| Clc1cccc(-c2cnc3[nH]cc(C#Cc4cccnc4)c3c2)c1 [Compound 4h] | > 10 | 2.89 ± 2.24 | > 50 | > 10 | – |
| Fc1ccc(-c2cnc3[nH]cc(C#Cc4cccnc4)c3c2)cc1 [Compound 4i] | 9.05 ± 1.03 | 2.23 ± 1.32 | > 50 | > 10 | – |
| C(#Cc1c[nH]c2ncc(-c3ccoc3)cc12)c1cccnc1 [Compound 4j] | > 10 | 47.8 ± 3.07 | > 50 | > 10 | anti-RSV activity (in words) (RSV-A [1]; HEp-2 cells): completely devoid of anti-RSV activity |
| C(#Cc1c[nH]c2ncc(-c3ccsc3)cc12)c1cccnc1 [Compound 4k] | > 10 | 4.83 ± 1.44 | > 50 | > 10 | – |
| COc1cc(OC)cc(-c2cnc3[nH]cc(C#Cc4ccccn4)c3c2)c1 [Compound 5a] | > 10 | 0.08 | 0.24 ± 0.23 | > 10 | – |
| COc1cc(OC)cc(-c2cnc3[nH]cc(C#Cc4ccccc4)c3c2)c1 [Compound 5b] | > 10 | 1.59 ± 0.59 | 6 ± 4.35 | > 10 | – |
| COc1cc(OC)cc(-c2cnc3[nH]cc(C#Cc4ccc(F)cc4)c3c2)c1 [Compound 5c] | 6.27 ± 0.93 | 0.36 ± 0.064 | 1.66 ± 0.89 | > 10 | – |
| COc1cc(OC)cc(-c2cnc3[nH]cc(C#Cc4cccc(Cl)c4)c3c2)c1 [Compound 5d] | 6.13 ± 0.94 | 16.3 | > 50 | > 10 | loss of activity against RSV-A relative to compound 4d (RSV-A [1]; HEp-2 cells): 30 fold |
| COc1cccc(C#Cc2c[nH]c3ncc(-c4cc(OC)cc(OC)c4)cc23)c1 [Compound 5e] | 6.29 ± 2.71 | 2.75 ± 0.24 | > 50 | > 10 | loss of activity against RSV-A relative to compound 4d (RSV-A [1]; HEp-2 cells): 5 fold |
| COc1cc(OC)cc(-c2cnc3[nH]cc(C#Cc4ccsc4)c3c2)c1 [Compound 5f] | 4.3 ± 0.47 | 0.31 ± 0.13 | 1.84 ± 0.95 | > 10 | – |
| COc1cc(OC)cc(-c2cnc3c(c2)c(C#Cc2cccnc2)cn3C)c1 [Compound 7a] | > 10 | 1.65 ± 0.5 | 30 ± 28.3 | > 10 | AAK1 affinity (in words) (AAK1): no AAK1 affinity; IC50 (AAK1): > 10 µM |
| CCn1cc(C#Cc2cccnc2)c2cc(-c3cc(OC)cc(OC)c3)cnc21 [Compound 7b] | 3.92 ± 1.15 | > 2 | 2 | > 10 | – |
| COc1cc(OC)cc(-c2cnc3c(c2)c(C#Cc2cccnc2)cn3CC(C)C)c1 [Compound 7c] | > 10 | > 10 | 10.7 ± 0.98 | > 10 | – |
| COc1cc(OC)cc(-c2cnc3c(c2)c(C#Cc2cccnc2)cn3Cc2ccccc2)c1 [Compound 7d] | > 10 | 4.88 ± 0.28 | > 50 | > 10 | – |

| Compound | EC50 (VEEV (TC-83)) [µM] | EC50 (RSV-A [1]; [6]) [µM] | CC50 at 4 days (in vitro [2]) [µM] | CC50 (in vitro [3]) [µM] | further results |
| --- | --- | --- | --- | --- | --- |
| O=C(c1cccc(-c2cnc3[nH]cc(C#Cc4cccnc4)c3c2)c1)N1CCCC1 [Compound 8L] | > 10 | 1 ± 0.94 | 5.71 ± 0.044 | > 10 | CC50 (in vitro [5]): 6.46 ± 1.75 µM; EC50 (SARS-CoV-2): 0.96 ± 0.32 µM |
| CNC(=O)c1ccc(-c2cnc3[nH]cc(C#Cc4cccnc4)c3c2)cc1 [Compound 8a] | 2.72 ± 0.93 | 0.89 ± 0.4 | 6 ± 5.66 | > 10 | – |
| O=C(NC1CC1)c1ccc(-c2cnc3[nH]cc(C#Cc4cccnc4)c3c2)cc1 [Compound 8d] | > 10 | 4.63 ± 3.71 | 50 | > 10 | – |
| CC(C)CNC(=O)c1cccc(-c2cnc3[nH]cc(C#Cc4cccnc4)c3c2)c1 [Compound 8g] | 3.75 ± 1.08 | 0.66 ± 0.22 | 3.38 ± 1.01 | > 10 | CC50 (in vitro [5]): > 85 µM; EC50 (SARS-CoV-2): 0.76 ± 0.46 µM |
| COCCNC(=O)c1cccc(-c2cnc3[nH]cc(C#Cc4cccnc4)c3c2)c1 [Compound 8h] | 2.48 ± 1.27 | 0.72 ± 0.46 | 17.3 ± 7.88 | > 10 | CC50 (in vitro [5]): > 100 µM; EC50 (SARS-CoV-2): 2.13 ± 1.91 µM |
| O=C(NCc1ccccc1)c1cccc(-c2cnc3[nH]cc(C#Cc4cccnc4)c3c2)c1 [Compound 8i] | 1.29 ± 1.41 | 2.71 ± 2.88 | > 50 | > 10 | – |
| CN(C)C(=O)c1cccc(-c2cnc3[nH]cc(C#Cc4cccnc4)c3c2)c1 [Compound 8j] | 4.57 ± 4.87 | 3.65 ± 2.28 | > 50 | > 10 | – |
| CCN(CC)C(=O)c1cccc(-c2cnc3[nH]cc(C#Cc4cccnc4)c3c2)c1 [Compound 8k] | > 10 | 0.97 ± 0.18 | 4.04 ± 0.14 | > 10 | CC50 (in vitro [5]): 88.5 ± 1.41 µM; EC50 (SARS-CoV-2): 10.2 ± 0.14 µM |
| O=C(c1cccc(-c2cnc3[nH]cc(C#Cc4cccnc4)c3c2)c1)N1CCOCC1 [Compound 8m] | > 10 | 3.42 ± 4.4 | 10.9 ± 0.69 | > 10 | – |
| O=C(NC1CC1)c1cccc(-c2cnc3[nH]cc(C#Cc4ccc(F)nc4)c3c2)c1 [Compound 9a] | 6.54 ± 1.21 | 1.76 ± 0.91 | > 50 | > 10 | loss in anti-RSV activity relative to compound 8f (RSV-A [1]; HEp-2 cells): 10 fold |
| COc1cncc(C#Cc2c[nH]c3ncc(-c4cccc(C(=O)NC5CC5)c4)cc23)c1 [Compound 9b] | 1.39 ± 0.2 | 0.24 ± 0.057 | 22.2 ± 3.68 | 8.99 ± 1.6 | – |
| Cc1cncc(C#Cc2c[nH]c3ncc(-c4cccc(C(=O)NC5CC5)c4)cc23)c1 [Compound 9c] | 1.8 ± 0.32 | 0.18 ± 0.085 | > 50 | > 10 | CC50 (in vitro [5]): > 100 µM; EC50 (SARS-CoV-2): 1.82 ± 0.83 µM |
| O=C(NC1CC1)c1cccc(-c2cnc3[nH]cc(C#Cc4ccccc4)c3c2)c1 [Compound 9d] | > 10 | 0.82 ± 0.22 | > 50 | > 10 | – |
| O=C(NC1CC1)c1cccc(-c2cnc3[nH]cc(C#Cc4ccsc4)c3c2)c1 [Compound 9e] | > 10 | 0.51 ± 0.16 | > 50 | > 10 | – |
| O=C(NC1CC1)c1cccc(-c2cnc3[nH]cc(C#Cc4cccc(Cl)c4)c3c2)c1 [Compound 9f] | 6.7 ± 2.79 | > 50 | > 50 | > 10 | anti-RSV activity (in words) (RSV-A [1]; HEp-2 cells): inactive |
| COc1cccc(C#Cc2c[nH]c3ncc(-c4cccc(C(=O)NC5CC5)c4)cc23)c1 [Compound 9g] | 5.27 ± 1.01 | 0.1 ± 0.19 | > 20 | > 10 | – |
| N#C[C@@]1(c2ccc3c(N)ncnn23)O[C@H](CO)[C@@H](O)[C@H]1O [GS-441524, reference compound] | – | – | – | – | EC50 (SARS-CoV-2): 0.7 ± 0.07 µM |
| CN1CCN(C)/C(=N/c2ccc([N+](=O)[O-])cc2C(=O)Nc2ccccc2)C1 [ML-336, (E)-2-((1,4-Dimethylpiperazin-2-ylidene)amino)-5-nitro-N-phenylbenzamide, reference compound] | 0.04 ± 0.01 | – | – | > 10 | – |
| NC(=O)c1ncn([C@@H]2O[C@H](CO)[C@@H](O)[C@H]2O)n1 [Ribavirin, reference compound] | – | 3.11 ± 1.85 | > 50 | – | – |
| Cc1ccc(CCCO)c(NCc2ccc3nc(NCCCN4CCOCC4)n(Cc4nc(C)ccc4O)c3c2)c1 [TMC353121, reference compound] | – | – | – | – | EC50 (RSV-A [1]; [7]): 0.0013 ± 0.0008 µM |
| dextran sulfate sodium salt [DS-10000, reference compound] | – | – | – | – | EC50 (RSV-A [1]; [7]): 0.068 ± 0.045 µM |

Source: article PMC9643853, “Synthesis and evaluation of 3-alkynyl-5-aryl-7-aza-indoles as broad-spectrum antiviral agents” (Frontiers in Chemistry, 2022)
